Data: ChEMBL document CHEMBL5360641, “4'-Ethynyl-2'-deoxy-2'-β-fluoro-2-fluoroadenosine: A Highly Potent and Orally Available Clinical Candidate for the Treatment of HIV-1 Infection” (J Med Chem, 2023)
pEC50: −log10 of the molar value.

What was measured:
[1] = test system: Human immunodeficiency virus 1; assay: Antiviral activity against HIV1 VSV-G pseudotyped virus infected in human HEK293T cells assessed as inhibition of viral growth preincubated for 3 hrs followed by washout and further incubated with compound for 72 hrs by luciferase assay; assay type: functional, organism-based; conditions: Human immunodeficiency virus 1, HEK-293T
[2] = Selectivity index, ratio of CC50 for cytotoxicity against HEK293T cells assessed as reduction in cell viability by MTT assay to EC50 for antiviral activity against HIV1 VSV-G pseudotyped virus infected in human HEK293T cells assessed as inhibition of viral growth; assay type: toxicity, cell-based; conditions: read-out: Ratio CC50/EC50
[3] = Cytotoxicity against HEK293T cells assessed as reduction in cell viability by MTT assay; assay type: toxicity, cell-based, HEK-293T; conditions: human

COc1nc(N)c2ncn([C@@H]3O[C@@](CO)(N=[N+]=[N-])[C@@H](O)[C@@H]3F)c2n1
pEC50 [1]: 8.35
selectivity ratio [2]: > 22400
CC50 [3]: > 100000 nM
